From BigSolDB 2.1

O=C(O)c1cc([N+](=O)[O-])ccc1O
solubility (mole fraction)
Settings | 278.15 K | 283.15 K | 288.15 K | 293.15 K | 298.15 K | 303.15 K | 308.15 K | 313.15 K | 318.15 K | 323.15 K
in 1,4-dioxane | – | – | 0.105 | 0.112 | 0.12 | 0.129 | 0.137 | 0.147 | 0.158 | 0.168
in DMF | 0.0752 | 0.0819 | 0.0894 | 0.0993 | 0.111 | 0.126 | 0.143 | 0.161 | 0.181 | 0.204
in NMP | 0.105 | 0.111 | 0.119 | 0.13 | 0.141 | 0.156 | 0.17 | 0.187 | 0.204 | 0.223
in acetonitrile | 0.0327 | 0.0366 | 0.0416 | 0.0481 | 0.0553 | 0.0632 | 0.0724 | 0.0814 | 0.0908 | 0.102
in ethanol | 0.0281 | 0.0307 | 0.0338 | 0.0379 | 0.0429 | 0.0481 | 0.0541 | 0.0605 | 0.0675 | 0.0752
in ethyl acetate | 0.0202 | 0.0234 | 0.027 | 0.031 | 0.0355 | 0.0404 | 0.0455 | 0.0509 | 0.0566 | 0.063
in ethylene glycol | 0.00911 | 0.0116 | 0.0142 | 0.0164 | 0.0197 | 0.0233 | 0.0262 | 0.0308 | 0.035 | 0.0393
in isobutanol | 0.0125 | 0.0149 | 0.0179 | 0.0211 | 0.0252 | 0.0296 | 0.0343 | 0.0383 | 0.043 | 0.0495
in isopropanol | 0.0255 | 0.0286 | 0.0322 | 0.0367 | 0.0406 | 0.046 | 0.052 | 0.0575 | 0.0641 | 0.0728
in methanol | 0.0316 | 0.0345 | 0.038 | 0.0427 | 0.0479 | 0.0538 | 0.0596 | 0.0661 | 0.0728 | 0.0807
in n-butanol | 0.0173 | 0.0203 | 0.0237 | 0.0275 | 0.032 | 0.0368 | 0.0421 | 0.0474 | 0.0533 | 0.06
in n-propanol | 0.0232 | 0.0266 | 0.0302 | 0.0342 | 0.0387 | 0.0433 | 0.0488 | 0.0537 | 0.0597 | 0.0656
in water | 3.03e-05 | 3.95e-05 | 5.22e-05 | 6.76e-05 | 8.62e-05 | 0.000107 | 0.000133 | 0.000165 | 0.000202 | 0.000253
